Our source for the EC50 and IC50 values is US10995099B2, “Compounds and their uses as ACC inhibitors” (NANJING RUIJIE PHARMATECH CO., LTD., priority 2017, dated 2021).

The test system of assay [1] is MDA-MB-468. Briefly: EC50 in MDA-MB-468. The class given is cell-based.
In assay [2] the test system is HepG2. Description: EC50 in HepG2. The class given is cell-based.
The test system of assay [3] is A549. Description: EC50 in A549. The class given is cell-based.
Assay [4] has as its target ACC2 (Homo sapiens (Human), UniProt O00763). Description: In vitro ACC inhibition assay (ADP-Glo), ACC2. The class given is biochemical. The protocol:
(§1) Compounds of the present invention were evaluated in an in vitro ACC inhibition assay as described by Harwood, et al, 2003, the entirety of which is incorporated herein by reference.
(§2) In Vitro Acetyl-CoA Carboxylase (ACC) Inhibition Assay
(§3) An exemplary procedure for the in vitro ACC inhibition assay, which can be used to determine the inhibitory action of compounds of the invention toward either ACC1 or ACC2, follows. The ADP-Glo™ Kinase Assay kit from Promega was used. The ADP-Glo™ Kinase Assay is a luminescent ADP detection assay to measure enzymatic activity by quantifying the amount of ADP produced during an enzyme reaction. The assay is performed in two steps; first, after the enzyme reaction, an equal volume of ADP-Glo™ Reagent is added to terminate the reaction and deplete the remaining ATP. Second, the Kinase Detection Reagent is added to simultaneously convert ADP to ATP and allow the newly synthesized ATP to be measured using a luciferase/luciferin reaction. Luminescence can be correlated to ADP concentrations by using an ATP-to-ADP conversion curve. The detailed procedure is as follows. 50 μL of the compound being tested (600 uM in DMSO) was added to a 384-well dilution plate. The compound was diluted 1:3 in succession in DMSO for each row for 11 wells. 0.5 μL ACC2 working solution was added to 384-well white Optiplate assay plate. 0.5 μL diluted compound solution in each column from step 2 to assay plate, each row containing 2 replicates. […] The plates were incubated at room temperature for 15 minutes. 5 μL substrate working solution was added to each well to initiate reaction. Final ACC2 reaction concentrations consist of: 5 nM ACC2, 20 μM ATP, 20 μM acetyl-CoA, 12 mM NaHCO3, 0.01% Brij35, 2 mM DTT, 5% DMSO, test compound concentrations: 30 μM, 10 μM, 3.33 μM, 1.11 μM, 0.37 μM, 0.123 μM, 0.0411 μM, 0.0137 μM, 0.00457 μM, 0.00152 μM, and 0.00051 μM. Plates were incubated at room temperature for 60 minutes. 10 μL ADP glo reagent was added. Plates were incubated at room temperature for 40 minutes. 20 μL kinase detection reagent was added. Plates were incubated at room temperature for 40 minutes, then read on a Perkin Elmer EnVision 2104 plate reader for luminescence as Relative Light Units (RLU).
(§4) Data for each concentration, as well as the positive and negative controls were averaged, and the standard deviation calculated. Percent inhibition was calculated by the formula: 100×(average negative control-compound)/(average negative control-average positive control). The IC50 for each compound was calculated by fitting the data with a non-linear regress ion equation: Y=Bottom+(Top−Bottom)/(1+10((Log IC50−X* HillSlope)), where X is the log of compound concentration and Y is percent inhibition.

For assay [5], the system named is ACC1. Particulars: ACC1 isolated from rat, mouse, monkey and human; cited from earlier work.
The subject of assay [6] is ACC2. Particulars: ACC2 isolated from rat, mouse, monkey and human; cited from earlier work.
Assay [7] concerns the target ACC1 (Homo sapiens (Human), UniProt Q13085). Description: In vitro ACC inhibition assay (ADP-Glo), ACC1. The class given is biochemical. As to the method:
as §1, §2, §3, §4

The mark [8] stands for this setting: MDA-MB-468, read-out: EC50 (μM) MDA-MB-468.
[9] abbreviates: HepG2, read-out: EC50 (μM) HepG2.
The mark [10] stands for this setting: ND630 versus RJ compounds, read-out: EC50 (μM) ND630/RJ-cmps(%).
Where [11] appears, read: 5 nM ACC2, 20 μM ATP, 20 μM acetyl-CoA, read-out: IC50 (μM) ACC2.
[12] abbreviates: ND630 versus RJ compounds, isoform not given, read-out: IC50 (μM) ND630/RJ-cmps(%).

Molecules are shown by their SMILES. Where two headings read alike, the source gives them in different places. Bounds are passed on as bounds.

ACC2 (Homo sapiens (Human), UniProt O00763), sequence (O00763 whole entry, species assumed): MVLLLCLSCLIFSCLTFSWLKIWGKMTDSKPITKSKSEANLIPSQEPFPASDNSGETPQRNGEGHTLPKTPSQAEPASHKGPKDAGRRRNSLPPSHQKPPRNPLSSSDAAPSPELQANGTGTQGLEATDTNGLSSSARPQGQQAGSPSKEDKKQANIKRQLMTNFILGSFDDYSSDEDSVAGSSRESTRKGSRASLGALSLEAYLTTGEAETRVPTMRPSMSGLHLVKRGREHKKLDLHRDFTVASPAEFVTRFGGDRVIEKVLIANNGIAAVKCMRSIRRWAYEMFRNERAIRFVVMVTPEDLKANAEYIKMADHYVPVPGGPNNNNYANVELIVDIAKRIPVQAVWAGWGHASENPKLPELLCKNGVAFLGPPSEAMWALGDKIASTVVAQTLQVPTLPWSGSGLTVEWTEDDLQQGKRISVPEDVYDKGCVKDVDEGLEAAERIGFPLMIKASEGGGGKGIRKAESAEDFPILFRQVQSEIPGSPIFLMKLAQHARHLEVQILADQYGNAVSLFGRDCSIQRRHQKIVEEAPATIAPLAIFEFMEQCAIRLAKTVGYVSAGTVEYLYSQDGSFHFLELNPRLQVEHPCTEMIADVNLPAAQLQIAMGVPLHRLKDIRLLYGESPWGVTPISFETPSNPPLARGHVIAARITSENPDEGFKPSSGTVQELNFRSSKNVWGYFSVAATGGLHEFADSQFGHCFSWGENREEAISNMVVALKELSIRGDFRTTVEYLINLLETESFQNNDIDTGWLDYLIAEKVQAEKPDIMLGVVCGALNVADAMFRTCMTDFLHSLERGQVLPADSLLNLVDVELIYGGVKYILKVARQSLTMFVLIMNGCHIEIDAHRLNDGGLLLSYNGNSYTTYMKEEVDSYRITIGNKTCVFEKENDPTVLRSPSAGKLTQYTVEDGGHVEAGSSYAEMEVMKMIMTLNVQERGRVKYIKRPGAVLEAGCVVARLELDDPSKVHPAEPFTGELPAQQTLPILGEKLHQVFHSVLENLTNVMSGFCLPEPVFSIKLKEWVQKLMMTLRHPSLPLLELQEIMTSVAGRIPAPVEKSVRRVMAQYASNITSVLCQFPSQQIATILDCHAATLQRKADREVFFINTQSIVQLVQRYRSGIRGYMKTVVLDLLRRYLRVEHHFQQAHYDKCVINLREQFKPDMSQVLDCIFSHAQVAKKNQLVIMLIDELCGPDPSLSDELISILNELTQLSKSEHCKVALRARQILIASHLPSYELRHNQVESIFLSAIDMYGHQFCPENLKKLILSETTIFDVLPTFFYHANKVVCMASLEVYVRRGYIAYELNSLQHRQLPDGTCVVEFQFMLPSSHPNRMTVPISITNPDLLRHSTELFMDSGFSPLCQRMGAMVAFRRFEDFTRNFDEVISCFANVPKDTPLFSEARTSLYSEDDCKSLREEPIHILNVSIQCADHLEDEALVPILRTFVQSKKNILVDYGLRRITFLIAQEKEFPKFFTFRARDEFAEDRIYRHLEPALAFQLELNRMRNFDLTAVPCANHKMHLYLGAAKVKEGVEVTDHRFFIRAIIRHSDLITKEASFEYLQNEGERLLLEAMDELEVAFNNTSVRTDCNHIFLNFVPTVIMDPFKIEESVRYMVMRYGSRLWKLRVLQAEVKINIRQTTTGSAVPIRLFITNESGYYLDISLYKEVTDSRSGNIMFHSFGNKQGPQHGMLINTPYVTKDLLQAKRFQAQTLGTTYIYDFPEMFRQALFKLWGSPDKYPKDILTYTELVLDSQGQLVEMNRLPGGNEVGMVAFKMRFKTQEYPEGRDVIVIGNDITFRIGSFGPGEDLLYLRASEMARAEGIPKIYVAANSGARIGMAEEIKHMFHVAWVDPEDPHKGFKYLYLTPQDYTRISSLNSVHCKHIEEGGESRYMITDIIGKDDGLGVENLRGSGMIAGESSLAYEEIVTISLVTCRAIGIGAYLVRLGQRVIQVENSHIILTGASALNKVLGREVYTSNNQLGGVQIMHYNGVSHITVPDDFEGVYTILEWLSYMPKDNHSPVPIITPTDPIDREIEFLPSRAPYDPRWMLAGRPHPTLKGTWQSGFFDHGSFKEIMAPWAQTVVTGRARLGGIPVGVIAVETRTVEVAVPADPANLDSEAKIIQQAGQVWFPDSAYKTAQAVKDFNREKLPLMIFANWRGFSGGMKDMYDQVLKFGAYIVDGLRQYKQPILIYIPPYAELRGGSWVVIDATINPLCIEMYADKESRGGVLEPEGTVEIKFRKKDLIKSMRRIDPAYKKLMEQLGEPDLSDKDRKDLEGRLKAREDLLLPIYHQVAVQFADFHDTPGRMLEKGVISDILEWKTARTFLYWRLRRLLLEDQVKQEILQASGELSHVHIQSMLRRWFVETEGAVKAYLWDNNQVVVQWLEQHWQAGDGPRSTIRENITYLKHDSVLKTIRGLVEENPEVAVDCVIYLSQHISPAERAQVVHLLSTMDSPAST

As for `COc1ccccc1[C@H](Cn1c(=O)n(C2(C(=O)O)CCCC2)c(=O)c2c(C)c(Br)sc21)OC1CCOCC1` [Example 30], the EC50 is greater than 10 µM in assay [1] (setting [8]); 0.1 to 1 µM in assay [2] (setting [9]); greater than 1 µM in assay [2] (setting [10]); greater than 1 µM in assay [3] (A549, read-out: EC50 (μM) A549). The IC50 was less than 0.01 µM in assay [4] (setting [11]) and 0.003 to 0.005 µM in assay [4] (setting [12]).

As to `COc1ccccc1[C@H](Cn1c(=O)n(C(C)(C)C(N)=O)c(=O)c2c(C)c(-c3ncco3)sc21)OC1CCOCC1` [Example 42], the EC50 in assay [1] (setting [8]) is greater than 10 µM; in assay [2] (setting [9]) it was less than 0.01 µM; in assay [2] (setting [10]), greater than 1 µM; in assay [3] (A549, read-out: EC50 (μM) A549), less than 0.5 µM.

For `O=C(c1c2ccccc2cc2ccccc12)N1CCC(N2CCC[C@@H](C(=O)N3CCOCC3)C2)CC1` [CP-640186], the IC50 in assay [5] and in assay [6] was 60 nM in each case.

As to `COc1ccccc1[C@H](Cn1c(=O)n(C2(C(=O)O)CC2)c(=O)c2c(C)c(-c3ncco3)sc21)OC1CCOCC1` [Example 33], the EC50 in assay [1] (setting [8]) is 1 to 10 µM; in assay [2] (setting [9]), 0.01 to 0.1 µM; in assay [2] (setting [10]), greater than 1 µM; in assay [3] (A549, read-out: EC50 (μM) A549) it was less than 0.5 µM. The IC50 in assay [7] is less than 0.001 µM; in assay [4] (setting [11]), less than 0.01 µM; in assay [4] (setting [12]) it was 0.003 to 0.005 µM.

For `COc1ccccc1C(Cn1c(=O)n(C2(C(=O)O)CCCC2)c(=O)c2c(C)c(-c3ncco3)sc21)OC1CCOCC1` (stereo not drawn) [Example 36], the EC50 was greater than 10 µM in assay [1] (setting [8]); 0.01 to 0.1 µM in assay [2] (setting [9]); greater than 1 µM in assay [2] (setting [10]); 0.5 to 1 µM in assay [3] (A549, read-out: EC50 (μM) A549). For the same molecule, the IC50 was 0.001 to 0.01 µM in assay [7], less than 0.01 µM in assay [4] (setting [11]) and 0.003 to 0.005 µM in assay [4] (setting [12]).

For the molecule `N.N.[Cl][Pt][Cl]` [cisplatin, reference compound], the EC50 was 0.68 µM in assay [1] (MDA-MB-468, reference, read-out: EC50 MDA-MB-468 (cisplatin)) and 1.28 µM in assay [3] (A549, reference, read-out: EC50 A549 (cisplatin)).

On to `COc1ccccc1[C@H](Cn1c(=O)n(C(C)(C)C(=O)O)c(=O)c2c(C)c(-c3ncco3)sc21)OC1CCOCC1` [Example 38], for which the EC50 is greater than 10 µM in assay [1] (setting [8]); 0.01 to 0.1 µM in assay [2] (setting [9]); greater than 1 µM in assay [2] (setting [10]); less than 0.5 µM in assay [3] (A549, read-out: EC50 (μM) A549). Moreover, the IC50 in assay [7] was less than 0.001 µM; in assay [4] (setting [11]), less than 0.01 µM; in assay [4] (setting [12]) it was 0.005 to 0.01 µM.

Turning to `COc1ccccc1C(Cn1c(=O)n(C2(C(=O)O)CCC2)c(=O)c2c(C)c(-c3ncco3)sc21)OC1CCOCC1` (stereo not drawn) [Example 37], the EC50 in assay [1] (setting [8]) was greater than 10 µM; in assay [2] (setting [9]), 0.01 to 0.1 µM; in assay [2] (setting [10]), greater than 1 µM; in assay [3] (A549, read-out: EC50 (μM) A549) it was less than 0.5 µM. Moreover, the figures for the IC50 in assay [7], in assay [4] (setting [11]) and in assay [4] (setting [12]) were less than 0.001 µM, less than 0.01 µM and 0.005 to 0.01 µM, respectively.

On to `COc1ccccc1[C@H](Cn1c(=O)n(C2(C(=O)O)CC2)c(=O)c2c(C)c(Cl)sc21)OC1CCOCC1` [Example 40], for which the EC50 in assay [1] (setting [8]) was greater than 10 µM; in assay [2] (setting [9]) it was 0.1 to 1 µM; in assay [2] (setting [10]), greater than 1 µM; in assay [3] (A549, read-out: EC50 (μM) A549), greater than 1 µM. In addition, the figures for the IC50 in assay [4] (setting [11]) and in assay [4] (setting [12]) were 0.01 to 0.1 µM and 0.005 to 0.01 µM, respectively.

For `COc1ccccc1C(Cn1c(=O)n(C2(C(N)=O)CCC2)c(=O)c2c(C)c(Br)sc21)OC1CCOCC1` (stereo not drawn) [Example 51], the IC50 was in the range of 0.01 to 0.05 µM in assay [7], 0.01 to 0.1 µM in assay [4] (setting [11]) and 0.003 to 0.005 µM in assay [4] (setting [12]). For the same molecule, the EC50 in assay [2] (setting [9]) was 0.01 to 0.1 µM; in assay [2] (setting [10]) it was greater than 1 µM.

As to `COc1ccccc1C(Cn1c(=O)n(C2(C(N)=O)CC2)c(=O)c2c(C)c(-c3ncco3)sc21)OC1CCOCC1` (stereo not drawn) [Example 46], the figures for the IC50 in assay [7], in assay [4] (setting [11]) and in assay [4] (setting [12]) were 0.001 to 0.01 µM, 0.01 to 0.1 µM and 0.005 to 0.01 µM, respectively. The EC50 is 0.01 to 0.1 µM in assay [2] (setting [9]) and greater than 1 µM in assay [2] (setting [10]).

Consider `CNC(=O)C1(n2c(=O)c3c(C)c(Br)sc3n(CC(OC3CCOCC3)c3ccccc3OC)c2=O)CCC1` (stereo not drawn) [Example 52], for which the IC50 was 0.01 to 0.05 µM in assay [7], 0.01 to 0.1 µM in assay [4] (setting [11]) and 0.003 to 0.005 µM in assay [4] (setting [12]). For the same molecule, the EC50 was 0.01 to 0.1 µM in assay [2] (setting [9]) and greater than 1 µM in assay [2] (setting [10]).

On to `COc1ccccc1[C@H](Cn1c(=O)n(C2(C(=O)O)CC2)c(=O)c2c(C)c(Br)sc21)OC1CCOCC1` [Example 29], for which the EC50 in assay [1] (setting [8]) is greater than 10 µM; in assay [2] (setting [9]), 0.01 to 0.1 µM; in assay [2] (setting [10]) it was 0.1 to 1 µM; in assay [3] (A549, read-out: EC50 (μM) A549), 0.5 to 1 µM. The IC50 in assay [7] was 0.001 to 0.01 µM; in assay [4] (setting [11]) it was less than 0.01 µM; in assay [4] (setting [12]) it was 0.003 to 0.005 µM.

For `CNC(=O)CC1(n2c(=O)c3c(C)c(Br)sc3n(C[C@H](OC3CCOCC3)c3ccccc3OC)c2=O)CC1` [Example 62], the IC50 in assay [7] was in the range of 0.001 to 0.01 µM; in assay [4] (setting [11]), 0.01 to 0.1 µM. Besides, the EC50 in assay [2] (setting [9]) is 0.01 to 0.1 µM; in assay [2] (setting [10]) it was greater than 1 µM.

Regarding `COc1ccccc1[C@H](Cn1c(=O)n(C2(C(=O)NS(C)(=O)=O)CC2)c(=O)c2c(C)c(-c3ncco3)sc21)OC1CCOCC1` [Example 41], the EC50 in assay [1] (setting [8]) is 1 to 10 µM; in assay [2] (setting [9]), greater than 1 µM; in assay [2] (setting [10]) it was greater than 1 µM; in assay [3] (A549, read-out: EC50 (μM) A549), less than 0.5 µM. The IC50 is less than 0.01 µM in assay [4] (setting [11]) and 0.005 to 0.01 µM in assay [4] (setting [12]).

With `COc1ccccc1[C@H](Cn1c(=O)n(C2(C(=O)O)CCC2)c(=O)c2c(C)c(Br)sc21)OC1CCOCC1` [Example 31], the EC50 in assay [1] (setting [8]) is greater than 10 µM; in assay [2] (setting [9]), 0.01 to 0.1 µM; in assay [2] (setting [10]) it was greater than 1 µM; in assay [3] (A549, read-out: EC50 (μM) A549), less than 0.5 µM. In addition, the IC50 is 0.001 to 0.01 µM in assay [7], less than 0.01 µM in assay [4] (setting [11]) and 0.003 to 0.005 µM in assay [4] (setting [12]).
